Laboratory results from patent US4683301A, “Carbapenem antibiotics” (Bristol-Myers Company, priority 1984, dated 1987).
≈ marks a conversion by molar mass, not a printed value. Like-named read-outs stand apart in the source and are kept apart here.

What was measured:
[1] = Blood levels in mice after intramuscular administration; assay type: in vivo; settings: mouse, im, 20 mg/kg i.m.
Text: *t1/2refers to halflife in minutes
**AUC refers to the area under the curve

H. influenzae A21522 = experiment: In vitro MIC, tube dilution in Nutrient Broth, overnight at 37° C.; assay type: cell-based; settings: Haemophilus influenzae
S. marcescens A20019 = experiment: microbe, parasite or virus in culture; settings: Serratia marcescens
H. influenzae A21518 = experiment: In vitro MIC, tube dilution in Nutrient Broth, overnight at 37° C.; assay type: cell-based; settings: Haemophilus influenzae
E. coli A20341-1 = experiment: as above; assay type: cell-based
S. pneumoniae A-9585 = experiment: as above; assay type: cell-based; settings: Streptococcus pneumoniae, A9585
S. pyogenes A-9604 = experiment: as above; assay type: cell-based; settings: Streptococcus pyogenes, A9604
P. mirabilis A-9900 [2] = experiment: Protective effect in the intramuscular treatment of infected mice; assay type: in vivo; settings: Proteus mirabilis, A9900, im, read-out: PD50/Treatment
Protocol: The PD50 (dose in mg/kg required to give protection to 50% of the infected mice) is indicated.
Treatment Schedule: Mice were treated i.m. with drugs 0 and 2 hours

E. coli A15119 [3] = experiment: In vitro MIC, tube dilution in Nutrient Broth, overnight at 37° C.; assay type: cell-based; settings: Escherichia coli
H. influenzae A20178 = experiment: as above; assay type: cell-based; settings: Haemophilus influenzae
S. aureus A-9537 = experiment: as above; assay type: cell-based; settings: Staphylococcus aureus
E. cloacae A-9656 = experiment: microbe, parasite or virus in culture; settings: Enterobacter cloacae, A9656
P. aeruginosa A-9843A [4] = experiment: In vitro MIC, tube dilution in Nutrient Broth, overnight at 37° C.; assay type: cell-based; settings: Pseudomonas aeruginosa, A9843A
P. vulgaris A21559 [5] = experiment: as above; assay type: cell-based; settings: Proteus vulgaris
B. fragilis A22053 = experiment: microbe, parasite or virus in culture; settings: Bacteroides fragilis
in vivo = settings: mouse
[6] = Urinary recovery after intramuscular administration to mice; assay type: in vivo; settings: mouse, urine, im, 20 mg/kg, 20 mg/kg i.m., read-out: Urinary recovery, Percentage of Dose Recovered
Text: | a single test; 4 mice per compound.

B. fragilis A22863 = experiment: microbe, parasite or virus in culture; settings: Bacteroides fragilis
K. pneumoniae A20468 = experiment: microbe, parasite or virus in culture; settings: Klebsiella pneumoniae
H. influenzae A-9833 = experiment: In vitro MIC, tube dilution in Nutrient Broth, overnight at 37° C.; assay type: cell-based; settings: Haemophilus influenzae, A9833
[7] = test system: S. aureus A15097 (Meth-res.); experiment: microbe, parasite or virus in culture; assay type: cell-based; settings: Staphylococcus aureus
P. mirabilis A-9900 [8] = experiment: microbe, parasite or virus in culture; settings: Proteus mirabilis, A9900
[9] = test system: S. aureus A-9606 (Pen-res.); experiment: In vitro MIC, tube dilution in Nutrient Broth, overnight at 37° C.; assay type: cell-based; settings: Staphylococcus aureus
B. fragilis A22862 = experiment: as above; assay type: cell-based; settings: Bacteroides fragilis
P. morganii A15153 = experiment: microbe, parasite or virus in culture; settings: Morganella morganii
E. cloacae A-9659 [10] = experiment: microbe, parasite or virus in culture; settings: Enterobacter cloacae, A9659
[11] = Toxicity after intracranial administration to mice; settings: mouse, in vivo
K. pneumoniae A-9664 [12] = experiment: microbe, parasite or virus in culture; settings: Klebsiella pneumoniae, A9664
S. faecalis A20688 = experiment: In vitro MIC, tube dilution in Nutrient Broth, overnight at 37° C.; assay type: cell-based; settings: Enterococcus faecalis
P. aeruginosa A20599 = experiment: Protective effect in the intramuscular treatment of infected mice; assay type: in vivo; settings: Pseudomonas aeruginosa, A20599, im; i.m., challenge 9 × 10^4 organisms, treated 0 and 2 h postinfection; read-out: PD50/Treatment
Protocol: (§1) 3.5 hours (all others); 5 mice were used in each test.

P. vulgaris A21559 [13] = experiment: as above; assay type: in vivo; settings: Proteus vulgaris, A21559, im; i.m., challenge 4 × 10^5 organisms, treated 0 and 2 h postinfection; read-out: PD50/Treatment
Protocol: as §1

S. marcescens A20335 = experiment: as above; assay type: in vivo; settings: Serratia marcescens, A20335, im; i.m., challenge 9 × 10^6 organisms, treated 1 and 3.5 h postinfection; read-out: PD50/Treatment
Protocol: as §1

P. aeruginosa A20481 = experiment: as above; assay type: in vivo; settings: Pseudomonas aeruginosa, A20481, im; i.m., challenge 3 × 10^4 organisms, treated 0 and 2 h postinfection; read-out: PD50/Treatment
Protocol: as §1

E. coli A15119 [14] = experiment: as above; assay type: in vivo; settings: Escherichia coli, A15119, im; i.m., challenge 6 × 10^6 organisms, treated 1 and 3.5 h postinfection; read-out: PD50/Treatment
Protocol: as §1

E. cloacae A-9659 [15] = experiment: as above; assay type: in vivo; settings: Enterobacter cloacae, A9659, im; i.m., challenge 4 × 10^6 organisms, treated 1 and 3.5 h postinfection; read-out: PD50/Treatment
Protocol: as §1

P. rettgeri A15167-2 = experiment: as above; assay type: in vivo; settings: Providencia rettgeri, A151672, im, read-out: PD50/Treatment
Protocol: as §1

M. morganii A15149 = experiment: as above; assay type: in vivo; settings: Morganella morganii, A15149, im; i.m., challenge 7 × 10^5 organisms, treated 1 and 3.5 h postinfection; read-out: PD50/Treatment
Protocol: as §1

S. aureus A-9606 = experiment: as above; assay type: in vivo; settings: Staphylococcus aureus, A9606, im; i.m., challenge 1 × 10^9 organisms, treated 1 and 3.5 h postinfection; read-out: PD50/Treatment
Protocol: as §1

P. aeruginosa A-9843a [16] = experiment: as above; assay type: in vivo; settings: Pseudomonas aeruginosa, A9843A, im, challenge 3 × 10^4 organisms, treated 0 and 2 h postinfection; read-out: PD50/Treatment
Protocol: as §1

K. pneumoniae A-9664 [17] = experiment: as above; assay type: in vivo; settings: Klebsiella pneumoniae, A9664, im; i.m., challenge 7 × 10^6 organisms, treated 1 and 3.5 h postinfection; read-out: PD50/Treatment
Protocol: as §1

Pseudomonas species = settings: in words; prior art; cited from earlier work

With `C[C@@H](O)[C@H]1C(=O)N2C(C(=O)[O-])=C(SCC[S+]3CCCC3)C[C@H]12` [Example 1, 3-[2-(1-tetrahydrothiophenium)ethylthio]-6α-[1-(R)-hydroxyethyl]-7-oxo-1-azabicyclo[3.2.0]hept-2-ene-2-carboxylate] the AUC [1] was 7400 ng·h/mL, the half-life [1] was 9 min and the MIC (H. influenzae A21522) was 8 µg/mL (≈ 23.3 µM). For the same compound, the MIC (S. marcescens A20019) was 0.06 µg/mL (≈ 0.175 µM), the MIC (H. influenzae A21518) was 8 µg/mL (≈ 23.3 µM) and the MIC (E. coli A20341-1; E. coli A20341-1 (10^-3)) was 0.03 µg/mL (≈ 0.0873 µM). The MIC (E. coli A20341-1; Escherichia coli, A203411, E. coli A20341-1 (10^-2)) was 0.06 µg/mL (≈ 0.175 µM), the MIC (E. coli A20341-1; Escherichia coli, A203411, E. coli A20341-1 (10^-4), read-out: MIC) was 0.03 µg/mL (≈ 0.0873 µM) and the MIC (S. pneumoniae A-9585) was 0.002 µg/mL (≈ 0.00582 µM). It also gave an MIC (S. pyogenes A-9604) of 0.004 µg/mL (≈ 0.0116 µM), an ED50 (P. mirabilis A-9900 [2]) of 7.7 mg/kg and an MIC (E. coli A15119 [3]; A15119, E. coli A15119 (10^-2)) of 0.06 µg/mL (≈ 0.175 µM). For the same compound, the MIC (E. coli A15119 [3]; A15119, E. coli A15119 (10^-3)) was 0.06 µg/mL (≈ 0.175 µM), the MIC (E. coli A15119 [3]; E. coli A15119 (10^-4 dil.), read-out: MIC) was 0.03 µg/mL (≈ 0.0873 µM) and the MIC (H. influenzae A20178) was 8 µg/mL (≈ 23.3 µM). For the same compound, the MIC (S. aureus A-9537; A9537, S. aureus A-9537) was 0.008 µg/mL (≈ 0.0233 µM), the MIC (S. aureus A-9537; A9537, S. aureus A-9537 +50% serum) was 0.03 µg/mL (≈ 0.0873 µM) and the MIC (E. cloacae A-9656) was 0.13 µg/mL (≈ 0.378 µM). The MIC (P. aeruginosa A-9843A [4]) was 1 µg/mL (≈ 2.91 µM), the MIC (P. vulgaris A21559 [5]) was 0.03 µg/mL (≈ 0.0873 µM) and the MIC (B. fragilis A22053) was 0.06 µg/mL (≈ 0.175 µM). It also gave an NOAEL (in vivo) of about 5 mg/kg, a dose excreted at 3 h ([6]; 0-3 hours) of 15.6% and a dose excreted at 24 h ([6]; 0-24 hours) of 17.7 ± 2.9%. For the same compound, the dose excreted at 6 h ([6]; 3-6 hours) was 2.1%, the dose excreted at 24 h ([6]; 6-24 hours) was under 0.2% and the MIC (B. fragilis A22863) was 0.06 µg/mL (≈ 0.175 µM). It also gave an MIC (K. pneumoniae A20468) of 0.13 µg/mL (≈ 0.378 µM), an MIC (H. influenzae A-9833) of 8 µg/mL (≈ 23.3 µM) and an MIC [7] of 2 µg/mL (≈ 5.82 µM). For the same compound, the MIC (P. mirabilis A-9900 [8]) was 0.13 µg/mL (≈ 0.378 µM), the MIC [9] was 0.016 µg/mL (≈ 0.0466 µM) and the MIC (B. fragilis A22862) was 0.06 µg/mL (≈ 0.175 µM). The MIC (P. morganii A15153) was 0.06 µg/mL (≈ 0.175 µM), the MIC (E. cloacae A-9659 [10]) was 0.13 µg/mL (≈ 0.378 µM) and the LD50 [11] was over 40 mg/kg. It also gave an MIC (K. pneumoniae A-9664 [12]) of 0.06 µg/mL (≈ 0.175 µM), an MIC (S. faecalis A20688) of 0.5 µg/mL (≈ 1.46 µM) and an ED50 (P. aeruginosa A20599) of 1.3 mg/kg. For the same compound, the ED50 (P. vulgaris A21559 [13]) was 3.3 mg/kg, the ED50 (S. marcescens A20335) was 5 mg/kg and the ED50 (P. aeruginosa A20481) was 0.8 mg/kg. It also gave an ED50 (E. coli A15119 [14]) of 1.6 mg/kg, an ED50 (E. cloacae A-9659 [15]) of 1.3 mg/kg and an ED50 (P. rettgeri A15167-2) of 8.7 mg/kg. For the same compound, the ED50 (M. morganii A15149) was 3.3 mg/kg, the ED50 (S. aureus A-9606) was 0.19 mg/kg and the ED50 (P. aeruginosa A-9843a [16]) was 0.6 mg/kg. For the same compound, the ED50 (K. pneumoniae A-9664 [17]) was 5 mg/kg.

In the case of `C[C@@H](O)[C@H]1C(=O)N2C(C(=O)O)=C(SCCN)C[C@H]12` [thienamycin], the “activity against various Pseudomonas species” value (Pseudomonas species) is given as “notable activity”.
